In publication PMC5698967, “A novel GH10 xylanase from Penicillium sp. accelerates saccharification of alkaline-pretreated bagasse by an enzyme from recombinant Trichoderma reesei expressing Aspergillus β-glucosidase” (Biotechnology for Biofuels, 2017):

Target: T1, PspXyn10 (Penicillium sp., UniProt A0A2Z5XER4)
T1 construct: full-length cDNA (404 residues), predicted signal peptide 1-22 removed on secretion; GH10 (25-336) + CBM1 (372-404); untagged, expressed in Trichoderma reesei C1PX10, purified; 55 kDa on SDS-PAGE; internal peptides LYYNDYNLESAGAK, NHLTNVVTHYK, YAWDVVNEGLNDDGTYR
T1 sequence (A0A2Z5XER4 23-404): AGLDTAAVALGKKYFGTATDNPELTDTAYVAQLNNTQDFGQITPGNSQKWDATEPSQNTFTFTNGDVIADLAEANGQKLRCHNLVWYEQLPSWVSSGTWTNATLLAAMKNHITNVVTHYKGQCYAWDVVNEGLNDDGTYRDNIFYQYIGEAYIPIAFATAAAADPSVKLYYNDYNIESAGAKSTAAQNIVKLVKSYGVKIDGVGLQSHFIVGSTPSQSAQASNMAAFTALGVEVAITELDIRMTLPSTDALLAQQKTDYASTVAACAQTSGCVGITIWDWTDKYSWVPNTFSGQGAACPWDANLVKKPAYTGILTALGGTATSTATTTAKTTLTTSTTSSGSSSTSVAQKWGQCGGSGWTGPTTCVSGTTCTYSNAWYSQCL
Experiment: p-nitrophenol release, absorbance at […] nm
Type: biochemical
Conditions: 1 mM substrate; 50 mM sodium acetate pH 5.0; 50 °C; 5 min

O=[N+]([O-])c1ccc(O[C@@H]2OC[C@@H](O[C@@H]3OC[C@@H](O)[C@H](O)[C@H]3O)[C@H](O)[C@H]2O)cc1 [pNPX2, p-nitrophenyl xylobioside]
specific activity: enzymatic activity of purified PspXyn10, JN11H, and JNK25H against p-nitrophenyl xylobioside (pNPX2) was assayed
